Calls of active or inactive are those of the source. The rule behind the calls is not given here.
What was measured:
[1] = system: HT-29; assay: Inhibition of TNF-alpha-induced adhesion of BCECF-labeled human U937 cells to human HT-29 cells at 10 uM preincubated for 1 hr followed by TNF-alpha challenge measured after 3 hrs by fluorescence microscopic method relative to control; type: functional
[2] = system: HT-29; assay: Inhibition of TNF-alpha-induced adhesion of BCECF-labeled human U937 cells to human HT-29 cells preincubated for 1 hr followed by TNF-alpha challenge measured after 3 hrs by fluorescence microscopic method; type: functional, cell-based
[3] = system: HT-29; assay: Inhibition of TNF-alpha-induced ICAM-1 expression in human HT-29 cells at 10 uM preincubated for 1 hr followed by TNF-alpha challenge measured after 3 hrs by Western blot analysis; type: functional, cell-based
[4] = system: HT-29; assay: Inhibition of TNF-alpha-induced MCP-1 expression in human HT-29 cells at 10 uM preincubated for 1 hr followed by TNF-alpha challenge measured after 3 hrs by Western blot analysis; type: functional, cell-based
[5] = system: HT-29; assay: Inhibition of TNF-alpha-induced NFkappa-B transcriptional activity in human HT-29 cells at 10 uM preincubated for 1 hr followed by TNF-alpha challenge measured after 3 hrs by dual luciferase reporter gene assay; type: functional, cell-based
[6] = system: HT-29; assay: Inhibition of TNF-alpha-induced ROS production in human HT-29 cells at 10 uM preincubated for 1 hr followed by TNF-alpha challenge measured after 30 mins by DCF-DA dye-based fluorescence microscopy; type: functional, cell-based
[7] = system: HT-29; assay: Inhibition of TNF-alpha-induced adhesion of BCECF-labeled human U937 cells to human HT-29 cells at […] preincubated for 1 hr followed by TNF-alpha challenge measured after 3 hrs by fluorescence microscopic method relative to control; type: functional
[8] = system: HT-29; assay: Inhibition of LPS-induced TNF-alpha expression in human HT-29 cells at 10 uM preincubated for 1 hr followed by TNF-alpha challenge measured after 3 hrs by Western blot method; type: functional, cell-based
[9] = system: HT-29; assay: Inhibition of LPS-induced TNF-alpha expression in human HT-29 cells at […] preincubated for 1 hr followed by TNF-alpha challenge measured after 3 hrs by Western blot method; type: functional, cell-based
[10] = system: HT-29; assay: Inhibition of TNF-alpha-induced AP-1 transcriptional activity in human HT-29 cells at 10 uM preincubated for 1 hr followed by TNF-alpha challenge measured after 3 hrs by dual luciferase reporter gene assay; type: functional, cell-based
[11] = system: Rattus norvegicus; assay: Antiinflammatory activity in TNBS-induced Sprague-Dawley rat colitis model assessed as recovery of colon tissue edematous inflammation at 300 mg/kg, po qd administered for 5 days measured on day 6; type: functional, organism-based
[12] = system: Rattus norvegicus; assay: Antiinflammatory activity in TNBS-induced Sprague-Dawley rat colitis model assessed as recovery in body weight decrease at 300 mg/kg, po qd administered for 5 days measured on day 6; type: functional, organism-based
[13] = system: HT-29; assay: Potency index, ratio of 5-ASA IC50 to test compound IC50 for inhibition of TNF-alpha-induced adhesion of BCECF-labeled human U937 cells to human HT-29 cells; type: functional
[14] = system: HT-29; assay: Inhibition of TNF-alpha-induced ICAM-1 expression in human HT-29 cells preincubated for 1 hr followed by TNF-alpha challenge measured after 3 hrs by Western blot analysis; type: functional, cell-based
[15] = system: HT-29; assay: Inhibition of TNF-alpha-induced MCP-1 expression in human HT-29 cells preincubated for 1 hr followed by TNF-alpha challenge measured after 3 hrs by Western blot analysis; type: functional, cell-based
[16] = system: HT-29; assay: Inhibition of TNF-alpha-induced ROS production in human HT-29 cells preincubated for 1 hr followed by TNF-alpha challenge measured after 30 mins by DCF-DA dye-based fluorescence microscopy; type: functional, cell-based
[17] = system: HT-29; assay: Inhibition of LPS-induced TNF-alpha expression in human HT-29 cells preincubated for 1 hr followed by TNF-alpha challenge measured after 3 hrs by Western blot method; type: functional, cell-based
[18] = system: Rattus norvegicus; assay: Antiinflammatory activity in po dosed TNBS-induced Sprague-Dawley rat colitis model assessed as recovery in body weight decrease administered once a day for 5 days measured on day 6; type: functional, organism-based
[19] = system: Rattus norvegicus; assay: Antiinflammatory activity in po dosed TNBS-induced Sprague-Dawley rat colitis model assessed as recovery of colon tissue edematous inflammation administered once a day for 5 days measured on day 6; type: functional, organism-based
[20] = system: Rattus norvegicus; assay: Antiinflammatory activity in po dosed TNBS-induced Sprague-Dawley rat colitis model assessed as decrease in MPO levels in colon tissue administered once per day for 5 days measured on day 6; type: functional, organism-based
[21] = system: HT-29; assay: Inhibition of TNF-alpha-induced ROS production in human HT-29 cells at 100 uM preincubated for 1 hr followed by TNF-alpha challenge measured after 30 mins by DCF-DA dye-based fluorescence microscopy; type: functional, cell-based

O=C1/C(=C/c2ccc(Cl)cc2)Cc2ccccc21
inhibition at 10 µM [1]: -6.1%

O=C1/C(=C/c2ccccc2O)Cc2cc(O)ccc21
inhibition at 10 µM [1]: 32.1%

O=C1/C(=C/c2ccc(Cl)cc2)Cc2cccc(O)c21
inhibition at 10 µM [1]: 78.4%
IC50 [2]: 1.64 µM
inhibition [3]: Active
inhibition [4]: Active
inhibition [5]: Active
inhibition [6]: Active

O=C1/C(=C/c2ccc(O)cc2)Cc2cccc(O)c21
inhibition at 10 µM [1]: 69.8%

O=C1/C(=C/c2cccc(C(F)(F)F)c2)Cc2ccccc21
inhibition at 10 µM [1]: 54.9%

COc1ccc(/C=C2\Cc3c(O)cccc3C2=O)cc1O
inhibition at 10 µM [1]: 0.1%

O=C1/C(=C/c2ccccc2O)Oc2cc(O)ccc21
inhibition at 10 µM [1]: 53.5%

O=C1/C(=C/c2ccc(Cl)cc2)Cc2c(O)cccc21
inhibition at 10 µM [1]: 10.6%

O=C1/C(=C/c2ccccc2O)Cc2ccc(O)cc21
inhibition at 10 µM [1]: 71.3%
IC50 [2]: 2.29 µM
inhibition [3]: Active
inhibition [4]: Active
inhibition [5]: Active
inhibition [6]: Active

O=C1/C(=C/c2ccccc2O)Cc2c(O)cccc21
inhibition at 10 µM [1]: 30.3%

O=C1/C(=C/c2cccc(Cl)c2)Cc2ccccc21
inhibition at 10 µM [1]: -2.1%

O=C1/C(=C/c2ccc(Cl)cc2)Cc2ccc(O)cc21
inhibition at 10 µM [1]: 67.9%

Nc1ccc(O)c(C(=O)O)c1 [MESALAMINE]
inhibition at 10 µM [1]: 3.7%
inhibition [7]: 52.8%
IC50 [2]: 20400 µM
inhibition [8]: inactive
inhibition [9]: Active

O=C1/C(=C/c2ccc(C(F)(F)F)cc2)Cc2ccccc21
inhibition at 10 µM [1]: 22.5%

O=C1/C(=C/c2ccc(OC(F)(F)F)cc2)Cc2ccccc21
inhibition at 10 µM [1]: 34.5%

O=C1/C(=C/c2ccccn2)Cc2ccccc21
inhibition at 10 µM [1]: 21.9%

O=C1/C(=C/c2ccccc2Cl)Cc2ccccc21
inhibition at 10 µM [1]: -4.3%

O=C1/C(=C/c2ccc(Cl)o2)Oc2ccccc21
inhibition at 10 µM [1]: 62.2%

O=C1/C(=C/c2ccc(O)cc2)Cc2c(O)cccc21
inhibition at 10 µM [1]: -1.7%

O=C1/C(=C/c2ccc(-c3ccccc3)cc2)Cc2ccccc21
inhibition at 10 µM [1]: 62.6%

COc1ccc(/C=C2\Cc3ccc(O)cc3C2=O)cc1O
inhibition at 10 µM [1]: 12%

O=C1/C(=C/c2cccc(O)c2)Cc2cc(O)ccc21
inhibition at 10 µM [1]: 50.2%

O=C1/C(=C/c2cccc(O)c2)Cc2c(O)cccc21
inhibition at 10 µM [1]: 6.1%

O=C1/C(=C/c2cccc(O)c2)Oc2ccccc21
inhibition at 10 µM [1]: 75.4%
IC50 [2]: 3.17 µM
inhibition [3]: Active
inhibition [4]: Active
inhibition [5]: Active
inhibition [6]: Active

O=C1/C(=C/c2ccc(O)cc2)Cc2cc(O)ccc21
inhibition at 10 µM [1]: 45.4%

O=C1/C(=C/c2cccc(O)c2)Cc2ccc(O)cc21
inhibition at 10 µM [1]: 62.7%

O=C1/C(=C/c2ccc(Cl)s2)Oc2ccccc21
inhibition at 10 µM [1]: 75.1%
IC50 [2]: 3.72 µM
inhibition [3]: Active
inhibition [4]: Active
inhibition [5]: Active
inhibition [6]: Active

O=C1/C(=C/c2ccccc2F)Cc2ccccc21
inhibition at 10 µM [1]: 27.8%

O=C1/C(=C/c2ccc(O)cc2)Cc2ccc(O)cc21
inhibition at 10 µM [1]: 80.3%
IC50 [2]: 0.83 µM
inhibition [3]: Active
inhibition [4]: Active
inhibition [5]: Active
inhibition [6]: Active
inhibition [8]: Active
inhibition [10]: Active

O=C(O)c1cc(/N=N/c2ccc(S(=O)(=O)Nc3ccccn3)cc2)ccc1O
inhibition [11]: Active
inhibition [12]: Active

O=C1/C(=C/c2ccc(Cl)o2)Cc2ccccc21
inhibition at 10 µM [1]: -8.9%

O=C1/C(=C/c2cccc(OC(F)(F)F)c2)Cc2ccccc21
inhibition at 10 µM [1]: 9.9%

COc1ccc(/C=C2\Cc3cc(O)ccc3C2=O)cc1O
inhibition at 10 µM [1]: -2.5%

O=C1/C(=C/c2ccccc2O)Oc2ccccc21
inhibition at 10 µM [1]: 85.6%
IC50 [2]: 0.95 µM
inhibition [3]: Active
inhibition [4]: Active
inhibition [5]: Active
inhibition [6]: Active

O=C1/C(=C/c2ccccc2O)Cc2cccc(O)c21
inhibition at 10 µM [1]: 67.9%

O=C1/C(=C/c2ccccc2Cl)Oc2ccccc21
inhibition at 10 µM [1]: 50.7%

O=C1/C(=C/c2ccc(Cl)cc2)Cc2cc(O)ccc21
inhibition at 10 µM [1]: 0.2%

O=C1/C(=C/c2cccc(-c3ccccc3)c2)Cc2ccccc21
inhibition at 10 µM [1]: 33.4%

O=C1/C(=C/c2ccc(O)cc2)Cc2ccccc21
inhibition at 10 µM [1]: 72.6%
IC50 [2]: 1.53 µM
inhibition [3]: Active
inhibition [4]: Active
inhibition [5]: Active
inhibition [6]: Active

O=C1/C(=C/c2ccccc2OC(F)(F)F)Cc2ccccc21
inhibition at 10 µM [1]: 3.4%

O=C1/C(=C/c2ccc(O)cc2)Oc2cc(O)ccc21
inhibition at 10 µM [1]: 80.3%
IC50 [2]: 0.5 µM
inhibition [2]: Dose-dependent effect
Ratio IC50 [13]: 40000
inhibition [14]: Dose-dependent effect
inhibition [15]: Dose-dependent effect
inhibition [5]: Active
inhibition [16]: Active
inhibition [8]: Active
inhibition [17]: Dose-dependent effect
inhibition [10]: Active
Activity [18]: Dose-dependent effect
Activity [19]: Dose-dependent effect
inhibition [20]: Dose-dependent effect

O=C1/C(=C/c2cccc(O)c2)Oc2cc(O)ccc21
inhibition at 10 µM [1]: 75.7%
IC50 [2]: 1.68 µM
inhibition [3]: Active
inhibition [4]: Active
inhibition [5]: Active
inhibition [6]: Active

O=C1/C(=C/c2cccc(Cl)c2)Oc2cc(O)ccc21
inhibition at 10 µM [1]: 45.9%

O=C1/C(=C/c2ccccc2)Cc2ccccc21
inhibition at 10 µM [1]: 55.3%
IC50 [2]: 5.75 µM
inhibition [4]: Active
inhibition [5]: Active

O=C1/C(=C/c2ccccc2O)Cc2ccccc21
inhibition at 10 µM [1]: 63.1%

O=C1/C(=C/c2cccc(O)c2)Cc2cccc(O)c21
inhibition at 10 µM [1]: 60.5%

COc1ccc(/C=C2\Cc3cccc(O)c3C2=O)cc1O
inhibition at 10 µM [1]: 35%

O=C1/C(=C/c2cccnc2)Cc2ccccc21
inhibition at 10 µM [1]: 28.7%

O=C1/C(=C/c2ccc(Cl)s2)Cc2ccccc21
inhibition at 10 µM [1]: 5.7%

O=C1/C(=C/c2cccc(O)c2)Cc2ccccc21
inhibition at 10 µM [1]: 43.7%

O=C1/C(=C/c2ccccc2C(F)(F)F)Cc2ccccc21
inhibition at 10 µM [1]: 42.8%

O=C1/C(=C/c2cccc([N+](=O)[O-])c2)Cc2ccccc21
inhibition at 10 µM [1]: 46.5%

O=C1/C(=C/c2ccccc2Cl)Oc2cc(O)ccc21
inhibition at 10 µM [1]: 45.5%

O=C1/C(=C/c2ccc(O)cc2)Oc2ccccc21
inhibition at 10 µM [1]: 63.6%

O=C1/C(=C/c2ccc(F)cc2)Cc2ccccc21
inhibition at 10 µM [1]: 7.1%

O=C1/C(=C/c2cccc(F)c2)Cc2ccccc21
inhibition at 10 µM [1]: 22.1%

COc1cc(C(C)=O)ccc1O
inhibition [21]: Active

O=C1/C(=C/c2cccc(Cl)c2)Oc2ccccc21
inhibition at 10 µM [1]: 40%

O=C1/C(=C/c2ccc(Cl)cc2)Oc2ccccc21
inhibition at 10 µM [1]: 68.7%

O=C1/C(=C/c2ccc(Cl)cc2)Oc2cc(O)ccc21 [6-HYDROXY-4'-CHLORO AURONE]
inhibition at 10 µM [1]: 49%

From ChEMBL document CHEMBL4130349, “Discovery and structure-activity relationship studies of 2-benzylidene-2,3-dihydro-1H-inden-1-one and benzofuran-3(2H)-one derivatives as a novel class of potential therapeutics for inflammatory bowel disease” (Eur J Med Chem, 2017)
